The text below walks through data of patent US3959356A, “Acetylene derivatives of amino acids” (Richardson-Merrell Inc., priority 1975, dated 1976).

Bounds are passed on as bounds.

Test [1] is described as follows: loss of body weight in rats on daily dosing. Format: in vivo. As to conditions: rats weighing 190 g; oral 25 mg/kg for four days (not a sedative dose); saline group 250 g. The method, then:
For instance, rats weighing 190 g, when given for four days, oral doses of 25 mg/kg 4-amino-5-yne-hexanoic acid (which is not a sedative dose) weigh only 170 gms as compared to 250 g for animals of the same group which were given saline for the same period.

A further test has as its system audiogenic seizures. Briefly: protection against audiogenic seizures in DBA mice (method of Simler et al.). The test is classed as in vivo, mice of the DBA strain. The following applies: 50-200 mg/kg. The text has this:
This ability is further shown by the protective effect of this treatment on audiogenic seizures in mice of the DBA strain measured by the general method described by Simler et al., Biochem. Pharmacol. 22, 1701 (1973), which is currently used to evidence antiepileptic activity.

For a further test, the system named is reserpine ptosis. Briefly: reserpine ptosis test of Rubin et al. (anti-depressant activity). Format: in vivo. As to conditions: 50 mg/kg i.p. in mice one hour after 2 mg/kg i.v. reserpine; 3 hours after drug administration; control reserpinized animals 6.5. The method, then:
The ability of the compounds of this invention at doses ranging from 50 to 200 mg/kg, to alleviate reserpine ptosis has been shown by the classical test of B. Rubin et al., J. Pharmacol. 120, 125 (1957), which is currently used to determine anti-depressant activity. For instance, in intraperitoneal injection 50 mg/kg of 4-amino-5-yne-hexanoic acid in mice, one hour after an intravenous injection of 2 mg/kg reserpine dissolved in 2% ascorbic acid/water results in a palpebral aperture of 5.5, 3 hours after drug administration as compared to 6.5 for control reserpinized animals.

In test [2] the test system is spontaneous motor activity. Briefly: spontaneous motor activity in rodents (sedative properties), procedure of Dews. The test is classed as in vivo. The following applies: 100-200 mg/kg, mice or rats. The method, then:
The sedative properties of the compounds of this invention were determined by measuring spontaneous motor activity in rodents by the procedure described by P. Dews, Brit. J. Pharmacol. 8, 46 (1953).

Test [3] has as its system γ-aminobutyric acid transaminase. The following applies: literature compounds; cited from earlier work.
Test [4] concerns brain level of γ-aminobutyric acid. The following applies: literature compound, cited from earlier work.

`C#CC(N)CCC(=O)O` (racemic) [4-amino-5-yne-hexanoic acid, 4-Amino-5-yne-hexanoic acid]: the “body weight after treatment” value in test [1] is 170 gms. The “duration of protection against audiogenic seizures” value in the test with audiogenic seizures is given as “over 16 hours”. Further, in the test with audiogenic seizures (one hour after treatment), the “protection against audiogenic seizures” value was “complete protection”. In the test with reserpine ptosis, the palpebral aperture was determined as 5.5. For the same molecule, in test [2] (i.v., i.p. or oral), the “time after administration at which decreased motor activity is still observable” value was at least 48 h and the “time at which decreased motor activity appears after administration” value was 1 h. Besides, the “effect on spontaneous motor activity” value in test [2] (intravenous, intraperitoneal or oral route) is “substantially decreased motor activity”.

For the molecule `NCC#CC(=O)O` [4-aminotetrolic acid], the “type of inhibition of γ-aminobutyric acid transaminase” value in test [3] is “competitive reversible inhibitor”.

Consider `CCCC(CCC)C(=O)O` [n-dipropylacetate], for which the “effect on brain levels of γ-aminobutyric acid” value in test [4] is on record as “elevate brain levels of γ-aminobutyric acid”. For the same molecule, the “duration of the effect on brain γ-aminobutyric acid” value in test [4] (reversible effect) is given as “about 2 hours”. Moreover, the “type of inhibition of γ-aminobutyric acid transaminase” value in test [3] is listed as “competitively inhibiting”.
